The structures appear in SMILES notation. Where two headings read alike, the source gives them in different places.

The values that follow come from patent US8642614B2, “Toll-like receptor modulators and uses thereof” (The Regents of the University of Colorado, a body corporate, priority 2009, dated 2014).

Data set [1] in a line: Hargreaves test (radiant heat withdrawal), intrathecal injection with or without morphine. The settings on record: rat.
For data set [2] the following is noted: rat, in vivo.
In data set [3] the test system is HEK293 cells stably transfected with TLR4. Description: Cell viability assay (Trypan Blue). The settings on record: tested concentrations, FIG. 4. In kind it is cell-based, human. The procedure: Human embryonic kidney 293 (HEK293) cells were stably transfected with TLR4 and necessary assembly and signalling proteins (MD2, CD-14, LPSBP, etc.). Cells were cultured in DMEM supplemented with 10% FBS, penicillin (100 U/ml), streptomycin ([…]), L-glutamine (2 mM), 0.1 mg/ml normocin (InvivoGen, CA, USA) and 1×HEK Blue selection reagent (InvivoGen, CA, USA). Cells were implanted in 6 cm plates and grown to 65-75% confluency by incubating at 37° C., prior to drug treatment. On the day of treatment, media was removed from the 6 cm plate and replaced with cerebrospinal fluid (CSF) buffer supplemented with drug treatment. After 24 h incubation at 37° C., CSF was removed and cells were agitated with 0.05% Trypsin plus 0.2 g/l EDTA (Invitrogen, CA, USA) and re-suspended in fresh DMEM supplemented media. After re-suspension, a […] was taken from each 6 cm plate, mixed gently with 100 μl 0.4% Trypan Blue (Sigma, Mo., USA) and allowed to sit for 5 min. The ratio of blue stained cells to total cells was then quantified using a Bright Line 0.1 mm depth hemocytometer (VWR, PA, USA) under a Nikon TMS light microscope (Nikon Instrumentals, CA USA).

Data set [4] concerns LPS-induced TLR4 activation. Put plainly: Real time microscopy of Akt1-GFP translocation (TLR4 signaling) in RAW264.7 macrophages. In kind it is cell-based, mouse. The settings on record: RAW 264.7 Akt1-GFP, LPS 2 ng/ml. On the procedure:
Lipopolysaccharide (LPS)-induced TLR4 activation initiates the phosphoinositide 3-kinase (PI3K) cascade, triggering translocation of Akt1 to the plasma membrane in murine macrophages. RAW 264.7 cells transfected with an Akt1-GFP reporter13 were treated with drug then activated with LPS. In the absence of LPS, Akt1-GFP was uniformly diffused throughout the cytosol as observed by fluorescence microscopy. Addition of LPS (2 ng/ml) caused a rapid translocation of Akt1-GFP to the plasma membrane, lowering the Akt1-GFP concentration in the cytosol. Doses of Compound A-1 as low as 2 μM and Compound A-2 as low as 200 nM substantially abolished LPS-induced activation of the signaling pathway.
FIGS. 3A and 3B. A small dose of chemotactic peptide C5a (25 ng/mL) that stimulates PI3K15 was able to rescue the Akt signaling inhibited by either compound. […]
TLR4 signaling leads to the simultaneous activation of three parallel intra-cellular signaling pathways. […] Baseline fluorescence was captured for 5 frames, following which vehicle or antagonist was added in 200 μl. Imaging continued for a further 20 frames at which time LPS or test agonist (200 μl) were applied and monitored for a further 20 frames. […] GFP-Akt1 cytosolic clearance was quantified using ImageJ and expressed as a normalized change in cytoplasmic fluorescence over time.

Data set [5] has as its target T1, TLR4 (Homo sapiens, UniProt O00206). Put plainly: Secreted alkaline phosphatase (SEAP) reporter gene assay in HEK293 cells transfected with TLR4. The settings on record: HEK293, SEAP reporter downstream of NF-κB promoter; dose-dependent manner. The class given is cell-based. On the procedure: FIGS. 3A and 3B. A small dose of chemotactic peptide C5a (25 ng/mL) that stimulates PI3K15 was able to rescue the Akt signaling inhibited by either compound. Global translocation of Akt1-GFP to the plasma membrane was observed, confirming that these cells retained normal Akt signaling transduction functions. Akt1 is directly downstream of TLR4 in the signal transduction pathway. […] Murine macrophages express a variety of TLRs and immune receptors. […] The activity of Compound A-1 was further confirmed in an established TLR4 assay in HEK293 cells, where a secreted alkaline phosphatase reporter gene is located downstream from the NF-κB promoter. Compound A-1 was effective at blocking the downstream proinflammatory effectors of TLR4 in a dose-dependent manner.
Materials for the SEAP assay were obtained from Applied Biosystems (CA, USA) and utilized according to the manufacturer's specifications. Human embryonic kidney 293 (HEK293) cells stably transfected with TLR4 and a secreted alkaline phosphatase (SEAP) reporter gene was obtained from Invivogen (CA, USA). […]
A sample of CSF buffer (15 μL) from each well was collected and transferred to an opaque white 96 well plate (Microfluor 2, Thermo Scientific MA, USA). […] After 20 min, the luminescence of each well was measured using a plate reader (Beckman Coulter, DTX 880, CA, USA) with multimode analysis software.

The target in data set [6] is T1, TLR4. Description: Whole blood model of inflammation (cytokine secretion after LPS or E. coli). The class given is cell-based. The procedure:
Test of TLR4 inhibition by compounds of the invention with respect to impact on secretion of cytokines IL-6, IL-8, (TNFα) and IL1β in the whole blood model of inflammation was performed using the procedure described by Mollnes et al. (Blood, 2002, 100, 1869-1877) using (i) LPS to compare the two variants of 2126-HCl in a restricted set-up, (ii) gram negative bacteria to initiate innate immune response that involves both TLR4/MD2, TLR2, as well as the complement system (compare to anti-CD14 and compstatin).

Data set [7] concerns the target TLR4 (Homo sapiens, UniProt O00206+Q9Y6Y9).
Setting [8] is: clinically employed (−)-opioids.

T1 sequence (O00206 24-839): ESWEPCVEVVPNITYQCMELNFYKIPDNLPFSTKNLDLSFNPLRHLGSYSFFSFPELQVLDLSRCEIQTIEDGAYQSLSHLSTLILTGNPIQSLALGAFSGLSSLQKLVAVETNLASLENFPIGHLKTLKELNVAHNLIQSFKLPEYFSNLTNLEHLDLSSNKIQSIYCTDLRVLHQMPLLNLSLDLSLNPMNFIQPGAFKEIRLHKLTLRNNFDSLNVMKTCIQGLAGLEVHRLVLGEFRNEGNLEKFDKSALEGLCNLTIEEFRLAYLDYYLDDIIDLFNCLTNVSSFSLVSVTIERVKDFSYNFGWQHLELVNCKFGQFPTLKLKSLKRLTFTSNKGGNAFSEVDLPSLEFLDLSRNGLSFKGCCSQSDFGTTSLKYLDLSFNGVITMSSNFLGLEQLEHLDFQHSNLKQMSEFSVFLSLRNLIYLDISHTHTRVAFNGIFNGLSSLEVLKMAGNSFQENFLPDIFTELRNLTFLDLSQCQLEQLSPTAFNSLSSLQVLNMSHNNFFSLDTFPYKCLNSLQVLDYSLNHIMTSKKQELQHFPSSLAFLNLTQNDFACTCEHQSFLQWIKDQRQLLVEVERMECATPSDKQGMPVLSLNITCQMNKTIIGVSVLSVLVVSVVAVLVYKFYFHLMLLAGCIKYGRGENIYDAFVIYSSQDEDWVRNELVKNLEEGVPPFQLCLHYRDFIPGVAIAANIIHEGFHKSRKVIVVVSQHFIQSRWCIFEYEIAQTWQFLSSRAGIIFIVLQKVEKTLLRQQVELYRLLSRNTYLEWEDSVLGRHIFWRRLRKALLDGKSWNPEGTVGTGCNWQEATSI
Sequence of TLR4 (Homo sapiens, UniProt O00206+Q9Y6Y9) (O00206 24-839, species assumed): as the sequence (O00206 24-839) above
Sequence of TLR4 (Homo sapiens, UniProt O00206+Q9Y6Y9) (Q9Y6Y9 19-160, species assumed): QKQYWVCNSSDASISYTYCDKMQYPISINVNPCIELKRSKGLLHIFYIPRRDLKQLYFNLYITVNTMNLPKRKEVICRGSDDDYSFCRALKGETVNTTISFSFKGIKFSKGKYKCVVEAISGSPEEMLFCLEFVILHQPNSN

`CCOc1ccc(OCC(O)CN(C)Cc2c(C)nn(Cc3ccccc3Cl)c2C)cc1` (stereo not drawn) [Compound A-1, 1-(((1-(2-chlorobenzyl)-3,5-dimethyl-1H-pyrazol-4-yl)methyl)(methyl)amino)-3-(4-ethoxyphenoxy)propan-2-ol]: in data set [1] (with morphine, maximal analgesia recordable (10 s cut-off) across two hours), the “potentiation of the analgesic effects of morphine” value is “significantly potentiated”. The “effect on pain responsivity in the absence of co-administered morphine” value in data set [1] (without morphine) is recorded as “no effect”. Besides, the “behavioral effects of compound alone” value in data set [2] is given as “no detectable behavioral effects”. In addition, the cellular toxicity entry in data set [3] is given as “neither Compound A-1 nor Compound A-2 showed any significant cellular toxicity”. In addition, in data set [4], the “dose that substantially abolished LPS-induced activation of the signaling pathway” value is at most 2 µM. Also, the “blocking the downstream proinflammatory effectors of TLR4” value at TLR4 [5] was “effective”.
As to `CC[C@H](C)[C@H](N)C(=O)N[C@H]1CSSC[C@@H](C(=O)N[C@H](C(N)=O)[C@@H](C)O)NC(=O)[C@H](CCCN=C(N)N)NC(=O)[C@H](Cc2cnc[nH]2)NC(=O)[C@H](Cc2cnc[nH]2)NC(=O)CNC(=O)[C@H](Cc2c[nH]c3ccccc23)NC(=O)[C@H](CC(=O)O)NC(=O)[C@H](CCC(N)=O)NC(=O)[C@H](C(C)C)NC(=O)[C@H](C(C)C)NC1=O` [compstatin], the “effect of compstatin on the inhibition of Il-6 levels by anti-CD14 and 2126-HCl” value at TLR4 [6] (E. coli as activator) is listed as “increased the inhibitory effect”. Besides, on TLR4 [6] (E. coli stimulation, 2126-HCl 500 μM, compstatin 25 μM), the “reduction of Il-1β plasma levels” value is listed as “about 50%”. For the same compound, the “cytokine release in response to E. coli on addition of compstatin” value at TLR4 [6] (E. coli, added to anti-CD14 or 2126-HCl) is “further decreased”. In addition, the cytokine specificity entry at TLR4 [6] (compstatin itself) was “specific for Il8 and Il-1β”. For the same compound, at TLR4 [6] (whole blood), the “effect on Il-6 secretion / plasma levels” value is on record as “little impact”.
For `CCC(=O)C(CC(C)N(C)C)(c1ccccc1)c1ccccc1` (stereo not drawn) [methadone], on TLR4 [7] (setting [8]), the TLR4 agonism result was “TLR4 agonists”.
With `CN1CC[C@]23c4c5ccc(O)c4O[C@H]2[C@@H](O)C=C[C@H]3[C@H]1C5` [morphine], the TLR4 agonism entry at TLR4 [7] is given as “TLR4 agonists”.
As to `COc1ccc2c3c1O[C@H]1C(=O)CC[C@@]4(O)[C@@H](C2)N(C)CC[C@]314` [oxycodone], on TLR4 [7] (setting [8]), the TLR4 agonism entry is listed as “TLR4 agonists”.
In the case of `CCOC(=O)C1(c2ccccc2)CCN(C)CC1` [pethadine/meperidine], the TLR4 agonism entry at TLR4 [7] (setting [8]) is “TLR4 agonists”.
